As a reminder, the inhibition is the change of the read-out against control, counted positive when it falls.

Read-outs that look alike come from different tables or passages of the source.

Consider one molecule from patent US6518295B1, “Utilization of aryl(or heteroaryl)azolylcarbinol derivatives in the preparation of a medicament for the treatment of troubles mediated by an excess of substance P” (Laboratorios del Dr. Esteve, S.A., priority 1998, dated 2003).

Format in all cases: in vivo
In experiment [1] the test system is immobility time in adverse situation. Description: Effect on mobility in adverse situation (mice suspended by their tails, ITEMATIC-TST). The text has this: (§1) In one the inhibition of ptosis induced by reserpine was studied, and in the other the effect on mobility in adverse situation was investigated.
2.2 Effect on Mobility in Adverse Situation:
The method used was described by R. D. Porsolt and co-workers (Arch. Int. Pharmacodyn., 1987, 288, 11-30). The trial consists of suspending the mice by their tales for six minutes in an ITEMATIC-TST apparatus, which measures the mobility and the strength of the animals' movements. The animals exposed to this adverse situation, after a start with vigorous activity, become desperate and end up staying still.

Experiment [2] has as its system ptosis induced by reserpine. Kind of experiment: Inhibition of ptosis induced by reserpine in mice. As for the experimental part:
as §1
2.1 Inhibition of Ptosis Induced by Reserpine in Mice:
The method used was that described by S.Garattini and co-workers (Med. Exp., 1960, 3, 315-320). The trial consists of observing the possible inhibition of ptosis induced by reserpine ([…], ip: intraperitoneal) in mice, after the products under study had been administered orally.
The activity of the (±)-5-{α-[2-(dimethylamino)ethoxy] benzyl}-1-methyl-1H-pyrazol citrate (example 191) administered orally at different doses has been determined.

For experiment [3], the system named is intrathecal release of substance P. Kind of experiment: Effect on the spinal release of substance P in rats (intrathecal perfusion). As for the experimental part:
Effect on the Spinal Release of Substance P in Rats:
The study was carried out in vivo, in rats anaesthetised with halothane. The trial consisted of intrathecal perfusion with an artificial cerebrospinal fluid, with a view to collecting the peptides released from the superficial layers of the spinal cord while the product under study is administered locally or systematically. The method used was that described by Collin, E. and co-workers (Naunyn-Schmiedeberg's Arch. Pharmacol., 1994, 349, 387-393).
The activity of the (±)-5-{α-[2-(dimethylamino)ethoxy] benzyl}-1-methyl-1H-pyrazol citrate (example 191) was studied, administered intrathecally in the perfusion liquid, at a concentration of 1 μM.
It is of note that the effect of the systematic administration of product on the intrathecal release of substance P lasted 2 hours, the average inhibition being 50% of the effect during this period.

In the case of `CN(C)CCOC(c1ccccc1)c1ccnn1C.O=C(O)CC(O)(CC(=O)O)C(=O)O` (racemic) [Example 191, (±)-5-{α-[2-(dimethylamino)ethoxy]benzyl}-1-methyl-1H-pyrazol citrate], the inhibition at 12 mg/kg in experiment [1] (Mus musculus, mice, dose 12 mg/kg, oral) came to 20%; in experiment [2] (Mus musculus, 12 mg/kg, oral (dose as base)), 8%. For the same molecule, the inhibition at 23 mg/kg in experiment [1] (Mus musculus, mice, dose 23 mg/kg, oral) is 30%; in experiment [2] (Mus musculus, 23 mg/kg, oral (dose as base)) it was 30%. Besides, the inhibition at 46 mg/kg in experiment [1] (Mus musculus, mice, dose 46 mg/kg, oral) stood at 41%; in experiment [3] (Rattus norvegicus, central, systematic administration (46 mg/kg), average during the 2 hours, read-out: average inhibition of intrathecal release of substance P), 50%; in experiment [3] (Rattus norvegicus, 46 mg/kg, ip, rats anaesthetised with halothane, read-out: % Inhibition, with respect to control, of intrathecal release of substance P) it was 50%. The inhibition at 92 mg/kg in experiment [1] (Mus musculus, mice, dose 92 mg/kg, oral) turned out to be 69%; in experiment [2] (Mus musculus, 92 mg/kg, oral (dose as base)) it was 84%. In addition, in experiment [1] (mice suspended by their tails for six minutes), the “effect on the immobility period” value was “reducing the immobility period significantly and in a dose-dependent fashion”. The “DE-50 (inhibition of immobility time in adverse situation)” value in experiment [1] (mice, oral) was 50.5 mg/kg, oral. Further, testing at 80 mg/kg in experiment [2] (Mus musculus, 80 mg/kg, oral (dose as base)) gave an inhibition of 75%. Moreover, the “anti-depressive activity, inhibition of the effects of reserpine” value in experiment [2] (oral, different doses) was “clear anti-depressive activity inhibiting the effects of reserpine with a good dose-response”. Further, the SD-50 in experiment [2] (oral, inhibition of ptosis induced by reserpine) is listed as 38.5 mg/kg, oral. Further, the inhibition at 1 µM in experiment [3] (Rattus norvegicus, central, 1 μM, intrathecal, in the perfusion liquid, rats anaesthetised with halothane, read-out: % Inhibition, with respect to control, of intrathecal release of substance P) came to 58%. Further, the “effect on release of substance P” value in experiment [3] (intrathecally in the perfusion liquid, 1 μM) is “inhibited the release of substance P”; in experiment [3] (systematic administration of 46 mg/kg) it was “reduced the release of substance P”. For the same molecule, in experiment [3] (systematic administration (46 mg/kg)), the “duration of the effect on the intrathecal release of substance P” value was found to be 2 h.
